Assay results from US20230255953A1, “USE OF ROLUPERIDONE IN PREVENTING RELAPSE IN SCHIZOPHRENIA PATIENTS” (Minerva Neurosciences, Inc., priority 2022, published 2023).

Tested on: patients with negative symptoms of schizophrenia
Assay: Integrated analysis of Studies #1 and #2 (pooled ITT): PANSS-derived scores (NSFS, total, positive and negative subscales), DB, OL and whole study
Type: in vivo, human
Parameters: key to NSFS Score change from Baseline, Median: change from Baseline in PANSS NSFS points; higher score = more severe
Description: The primary integrated analysis of the efficacy of Roluperidone compared with placebo for the treatment of negative symptoms of schizophrenia is based on the change from Baseline in the PANSS Marder's negative symptoms factor score (in this document referred to as NSFS) to Week 12. Efficacy is also supported by the analysis of change from Baseline in the PSP Total score and the CGI-S to Week 12.
The PANSS was assessed at the time points described in Table 4.
The PANSS-derived endpoints used in these studies and the integrated analyses are described in Table 5A and a summary of the individual PANSS items used by physicians and clinicians to measure the severity of the symptoms in a schizophrenia patient is provided in Table 5B. The scale is divided into three parts, a positive scale, which provides a “PANSS positive subscore”, a negative scale, which provides a “PANSS negative subscore”, and general psychopathology scale. The sum of these three parts provides a PANSS total score, which ranges from 30 to 210 (where higher scores indicate more severe symptoms). (See Kay, S. R., et al. “The positive and negative syndrome scale (PANSS) for schizophrenia,” Schizophr Bulletin, 13(2), 261-276 (1987) and Gopal, S., et al. “Improvement of Negative Symptoms in Schizophrenia with Paliperidone Palmitate 1-Month and 3-Month Long-Acting Injectables: Results from a Phase 3 Non-Inferiority Study” Neuropsychiatric Disease and Treatment, 681-690, DOI: 10.2147/NDT.5226296, both of which are incorporated by reference.)
The Efficacy data from Study Nos. 1 and 2 were pooled. The majority of patients in the pooled ITT population completed the DB period (502 patients overall, 66.3%), with similar rates in each treatment group (placebo: 69.8%, 32 mg Roluperidone: 65.3%, and 64 mg Roluperidone: 63.8%) (Table 12). The majority (62.7%) of those who completed the DB period entered the OL period. The most common reason for discontinuation during the DB period among patients overall was withdrawal of consent (15.6%), followed by adverse events (7.3%) and lack of efficacy (5.4%) (Table 12). […] Approximately twice as many patients in the Roluperidone groups (32 mg: 8.5%; 64 mg: 9.1%) discontinued due to adverse events compared with patients in the placebo group (4.3%). More patients in the placebo group discontinued due to lack of efficacy (6.7%) than in the Roluperidone groups (32 mg: 4.4%; 64 mg: 5.1%). The low number of patients who discontinued due to lack of efficacy or withdrawal of consent probably reflects a low level of worsening of positive symptoms.
The integrated analysis supporting the efficacy of Roluperidone as a treatment for the negative symptoms of schizophrenia in adults is presented below.

[1] = Placebo in DB to Roluperidone 32 mg in OL, pooled ITT
[2] = Placebo in DB to Roluperidone 64 mg in OL, pooled ITT
[3] = Placebo in DB to Roluperidone in OL, Total, pooled ITT
[4] = Roluperidone Total, Week 2, DB, pooled ITT
[5] = Roluperidone Total, Week 2, pooled ITT

In the case of “1H-Isoindol-1-one,2-[ [1-[2-(4-fluorophenyl)-2-oxoethyl]-4-piperidinyl]methyl]-2,3-dihydro-, hydrochloride, hydrate (1:1:2) [Roluperidone]”, the “Patients with moderate improvement in NSFS (magnitude of change 6-8)” value (64 mg, Week 12, pooled) is reported as 19%, the “Patients with moderate or high improvement in NSFS, total” value (64 mg, Week 12, pooled) is reported as 32% and the “NSFS, LS mean decrease from Baseline compared with placebo” value (64 mg, Week 12, pooled ITT) is reported as −3.9. The “PANSS Positive Subscale Score change from Baseline, LS mean (SE)” value (64 mg, Week 12, pooled ITT) was −0.2 (0.21), the “PANSS Positive Subscale Score change from Baseline, Mean (SD)” value (64 mg, Week 12, pooled ITT) was −0.5 (2.88) and the “PANSS Positive Subscale Score change from Baseline, Median” value (64 mg, Week 12, pooled ITT) was 0.0. For the same substance, the “PANSS Positive Subscale Score, Difference (95% CI) in LS mean (vs placebo)” value (64 mg, Week 12, pooled ITT) was −0.4, the “PANSS negative subscale score, LS mean change from Baseline compared with placebo” value (64 mg, Week 12, pooled ITT) was −1.3 and the “PANSS positive subscale score, LS mean change from Baseline compared with placebo” value (64 mg, Week 12, pooled ITT) was −0.4. For the same substance, the “PANSS total score, LS mean change from Baseline compared with placebo” value (64 mg, Week 12, pooled ITT) was −2.8, the “Patients with 20% Reduction in NSFS at Week 12, percent” value (64 mg, responder analysis) was 39% and the “Patients with 20% Reduction in PANSS Total Score at Week 12, percent” value (64 mg, responder analysis) was 19%. For the same substance, the “Number of Patients with 20% Reduction in PANSS Total Score at Week 12” value (64 mg, responder analysis, n/N) was 34/176, the “Number of Patients with 20% reduction in NSFS at Week 12” value (64 mg, responder analysis, n/N) was 68/176 and the “NSFS Change from Active BL to Week 24, Mean (SD)” value [1] was −2.1 (2.56). The “NSFS Change from Active BL to Week 24, Median” value [1] was −2.0, the “NSFS Change from Active BL to Week 52, Mean (SD)” value [1] was −4.5 (3.60) and the “NSFS Change from Active BL to Week 52, Median” value [1] was −4.0. For the same substance, the “NSFS Change from Active BL to Week 54, Mean (SD)” value [1] was −4.7 (3.60), the “NSFS Change from Active BL to Week 54, Median” value [1] was −4.0 and the “NSFS Change from Open-label BL to Week 24, Mean (SD)” value [1] was −2.1 (2.56). For the same substance, the “NSFS Change from Open-label BL to Week 24, Median” value [1] was −2.0, the “NSFS Change from Open-label BL to Week 52, Mean (SD)” value [1] was −4.5 (3.60) and the “NSFS Change from Open-label BL to Week 52, Median” value [1] was −4.0. The “NSFS Change from Open-label BL to Week 54, Mean (SD)” value [1] was −4.7 (3.60), the “NSFS Change from Open-label BL to Week 54, Median” value [1] was −4.0 and the “NSFS Change from Study BL to Week 24, Mean (SD)” value [1] was −5.3 (3.72). For the same substance, the “NSFS Change from Study BL to Week 24, Median” value [1] was −5.0, the “NSFS Change from Study BL to Week 52, Mean (SD)” value [1] was −7.9 (3.69) and the “NSFS Change from Study BL to Week 52, Median” value [1] was −8.0. The “NSFS Change from Study BL to Week 54, Mean (SD)” value [1] was −7.9 (4.29), the “NSFS Change from Study BL to Week 54, Median” value [1] was −7.0 and the “NSFS Change from Active BL to Week 24, Mean (SD)” value [2] was −1.8 (3.55). The “NSFS Change from Active BL to Week 24, Median” value [2] was −2.0, the “NSFS Change from Active BL to Week 52, Mean (SD)” value [2] was −4.9 (4.72) and the “NSFS Change from Active BL to Week 52, Median” value [2] was −6.0. The “NSFS Change from Active BL to Week 54, Mean (SD)” value [2] was −4.2 (4.78), the “NSFS Change from Active BL to Week 54, Median” value [2] was −5.0 and the “NSFS Change from Open-label BL to Week 24, Mean (SD)” value [2] was −1.8 (3.55). For the same substance, the “NSFS Change from Open-label BL to Week 24, Median” value [2] was −2.0, the “NSFS Change from Open-label BL to Week 52, Mean (SD)” value [2] was −4.9 (4.72) and the “NSFS Change from Open-label BL to Week 52, Median” value [2] was −6.0. The “NSFS Change from Open-label BL to Week 54, Mean (SD)” value [2] was −4.2 (4.78), the “NSFS Change from Open-label BL to Week 54, Median” value [2] was −5.0 and the “NSFS Change from Study BL to Week 24, Mean (SD)” value [2] was −4.2 (3.38). The “NSFS Change from Study BL to Week 24, Median” value [2] was −4.0, the “NSFS Change from Study BL to Week 52, Mean (SD)” value [2] was −7.0 (3.76) and the “NSFS Change from Study BL to Week 52, Median” value [2] was −7.5. For the same substance, the “NSFS Change from Study BL to Week 54, Mean (SD)” value [2] was −6.6 (4.15), the “NSFS Change from Study BL to Week 54, Median” value [2] was −7.0 and the “NSFS Change from Active BL to Week 24, Mean (SD)” value [3] was −1.9 (3.06). The “NSFS Change from Active BL to Week 24, Median” value [3] was −2.0, the “NSFS Change from Active BL to Week 52, Mean (SD)” value [3] was −4.7 (4.17) and the “NSFS Change from Active BL to Week 52, Median” value [3] was −5.0. For the same substance, the “NSFS Change from Active BL to Week 54, Mean (SD)” value [3] was −4.4 (4.18), the “NSFS Change from Active BL to Week 54, Median” value [3] was −5.0 and the “NSFS Change from Open-label BL to Week 24, Mean (SD)” value [3] was −1.9 (3.06). For the same substance, the “NSFS Change from Open-label BL to Week 24, Median” value [3] was −2.0, the “NSFS Change from Open-label BL to Week 52, Mean (SD)” value [3] was −4.7 (4.17) and the “NSFS Change from Open-label BL to Week 52, Median” value [3] was −5.0. For the same substance, the “NSFS Change from Open-label BL to Week 54, Mean (SD)” value [3] was −4.4 (4.18), the “NSFS Change from Open-label BL to Week 54, Median” value [3] was −5.0 and the “NSFS Change from Study BL to Week 24, Mean (SD)” value [3] was −4.8 (3.60). The “NSFS Change from Study BL to Week 24, Median” value [3] was −4.0, the “NSFS Change from Study BL to Week 52, Mean (SD)” value [3] was −7.5 (3.72) and the “NSFS Change from Study BL to Week 52, Median” value [3] was −8.0. The “NSFS Change from Study BL to Week 54, Mean (SD)” value [3] was −7.3 (4.25), the “NSFS Change from Study BL to Week 54, Median” value [3] was −7.0 and the “NSFS Score change from Baseline, Mean (SD)” value [4] was −1.3 (2.25). For the same substance, the “NSFS Score change from Baseline, Median” value [4] was −1.0, the “PANSS Negative Subscale Score change from Baseline, Mean (SD)” value [4] was −1.3 (2.20) and the “PANSS Negative Subscale Score change from Baseline, Median” value [4] was −1.0. For the same substance, the “PANSS Total Score change from Baseline, Mean (SD)” value [4] was −2.0 (6.89), the “PANSS Total Score change from Baseline, Median” value [4] was −2.0 and the “PANSS Positive Subscale Score change from Baseline, Mean (SD)” value [5] was 0.1 (2.78). For the same substance, the “PANSS Positive Subscale Score change from Baseline, Median” value [5] was 0.0 and the “NSFS Score change from Baseline, Mean (SD)” value (Roluperidone Total, Week 4, DB, pooled ITT) was −2.4 (2.64).
